# Measured values taken from the supplement of paper PMC10307832.
# How the values were obtained:
# Assay in all cases: relative viability (nuclei count vs DMSO), 5 days (fraction); higher = more cells survive
# [1] = compound: CNC(=O)c1ccccc1Sc1ccc2c(/C=C/c3ccccn3)n[nH]c2c1 [Axitinib] + CCNC(=O)c1noc(-c2cc(C(C)C)c(O)cc2O)c1-c1ccc(CN2CCOCC2)cc1 [Luminespib] (partner 0.01 µM)
# How it was run: (§1)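 Medians of duplicate plates are given as relative viability. That measure is the nuclei count in treated wells divided by the count in vehicle wells. Counts were taken on 4× images of lung cancer cell lines in 1536-well plates, 5 days after pin-tool dosing the day after seeding with one drug alone or a fixed anchor-drug dose plus five library-drug doses (not always all listed) in √10 steps.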
# [2] = compound: Nc1nc(Nc2ccc3c(c2)CC[C@@H](N2CCCC2)CC3)nn1-c1cc2c(nn1)-c1ccccc1CCC2 [Bemcentinib] + CCNC(=O)c1noc(-c2cc(C(C)C)c(O)cc2O)c1-c1ccc(CN2CCOCC2)cc1 [Luminespib] (partner 0.01 µM)
# How it was run: as §1
# [3] = compound: Nc1nc(Nc2ccc3c(c2)CC[C@@H](N2CCCC2)CC3)nn1-c1cc2c(nn1)-c1ccccc1CCC2 [Bemcentinib] + C[C@@H](Oc1cc(-c2cnn(C3CCNCC3)c2)cnc1N)c1c(Cl)ccc(F)c1Cl [Crizotinib] (partner 1 µM)
# How it was run: as §1
# [4] = compound: Nc1nc(Nc2ccc3c(c2)CC[C@@H](N2CCCC2)CC3)nn1-c1cc2c(nn1)-c1ccccc1CCC2 [Bemcentinib] + N=C(N)NC(=N)NCCc1ccccc1 [Phenformin] (partner 250 µM)
# How it was run: as §1
Cell Line,relative viability ([1]; first compound 0.005 µM),relative viability ([1]; first compound 0.01581 µM),relative viability ([1]; first compound 0.05 µM),relative viability ([1]; first compound 0.1581 µM),relative viability ([1]; first compound 0.5 µM),relative viability ([2]; first compound 0.04 µM),relative viability ([2]; first compound 0.1265 µM),relative viability ([2]; first compound 0.4 µM),relative viability ([2]; first compound 1.265 µM),relative viability ([2]; first compound 4 µM),relative viability ([3]; first compound 0.04 µM),relative viability ([3]; first compound 0.1265 µM),relative viability ([3]; first compound 0.4 µM),relative viability ([3]; first compound 1.265 µM),relative viability ([3]; first compound 4 µM),relative viability ([4]; first compound 0.04 µM),relative viability ([4]; first compound 0.1265 µM),relative viability ([4]; first compound 0.4 µM),relative viability ([4]; first compound 1.265 µM),relative viability ([4]; first compound 4 µM)
NCI-H322M,1.06,0.845,0.833,0.796,1.07,0.828,0.943,0.835,0.817,0.804,1.02,0.971,0.944,1.05,1.09,0.726,0.804,0.739,0.862,0.833
NCI-H1651,0.941,0.965,1.03,0.745,1,0.967,0.757,1.05,0.79,0.977,0.886,0.882,0.873,0.905,0.878,0.352,0.324,0.283,0.316,0.354
NCI-H1437,1.12,1.1,1.07,1.16,1.08,1.12,1.24,1.15,1.07,1.11,0.931,1.04,0.972,0.984,0.967,0.305,0.33,0.375,0.3,0.296
NCI-H1355,0.822,0.73,0.748,0.747,0.659,0.771,0.823,0.737,0.673,0.758,1.08,1.18,1.07,1.14,1.17,0.442,0.444,0.483,0.42,0.484
NCI-H1755,0.527,0.63,0.533,0.364,0.428,0.742,0.52,0.617,0.34,0.418,0.901,0.878,0.838,0.939,0.901,0.652,0.62,0.648,0.59,0.622
SK-LU-1,0.224,0.21,0.188,0.201,0.238,0.204,0.202,0.196,0.192,0.198,0.923,1.09,0.943,1.07,1.09,0.521,0.633,0.485,0.548,0.6
NCI-H2126,0.82,0.921,0.963,0.876,0.912,0.893,0.973,0.81,0.975,0.939,1.05,1.1,1.01,1.03,1.02,0.502,0.496,0.51,0.596,0.568
HOP-62,0.934,0.798,0.908,0.885,0.85,0.863,0.875,0.844,1.02,1,1.01,1.08,,0.734,1.03,0.694,0.707,0.834,0.704,0.645
NCI-H2347,0.299,0.432,0.948,0.323,0.505,0.631,0.438,0.866,0.5,0.417,0.783,1.01,0.612,0.669,0.627,0.423,0.447,0.329,0.364,0.334
HCC-15,0.306,0.325,0.307,0.301,0.338,0.326,0.485,0.293,0.253,0.235,0.834,0.91,0.908,0.871,0.92,0.486,0.532,0.516,0.465,0.499
HCC-44,1.07,1.07,0.484,1.04,1.35,1.05,1.4,1.02,1.06,1.05,0.832,0.806,0.864,0.813,0.852,0.155,0.28,0.175,0.187,0.149
PC-14,0.295,,0.171,0.141,0.164,0.132,0.137,0.186,0.159,0.132,0.838,0.937,0.879,0.896,1.01,0.458,0.704,0.648,0.581,0.465
NCI-H2085,0.451,0.389,0.404,0.502,0.415,0.447,0.448,0.435,0.471,0.449,0.836,0.802,0.753,0.803,0.919,0.694,0.776,0.688,0.572,0.697
HCC-827,0.599,0.514,0.325,0.728,0.459,0.689,0.6,0.624,0.742,0.589,0.971,0.867,0.914,1,0.939,0.413,0.375,0.43,0.431,0.419
ChaGo-K-1,0.591,0.703,0.44,0.495,0.533,0.573,0.542,0.701,0.843,0.587,1.12,1.33,1.15,1.18,1.12,0.486,0.544,0.517,0.473,0.442
H3255,0.922,0.609,0.935,0.83,0.828,0.745,1.07,0.793,0.777,0.747,0.867,0.938,0.914,0.878,0.888,0.383,0.318,0.354,0.418,0.361
